The values that follow come from paper PMC3337405 (Cancer Chemotherapy and Pharmacology, 2012).

Data set [1] in a line: Plasma pharmacokinetics, noncompartmental analysis. Conditions: human, plasma, 75 mg; for Cmax: mean (SD).
Experimental: Blood samples for PK analysis were collected predose and 0.5, 1, 2, 3, 4, 8, 12, and 24 h post dose on days 1 and 3 at the same time as ECG assessments. […] Noncompartmental analysis (WinNonlin™ version 5.2, Pharsight, Sunnyvale, California) was performed to determine the following PK parameters: C max, T max, minimum (trough) plasma concentration over a dosing interval (C min), and AUC calculated using a trapezoidal method. For moxifloxacin, the AUC from time 0 to the last measurable concentration sampling time was calculated (AUC0–tlast).
The conditions of data set [2]: cited from earlier work.
Data set [3] deals with healthy volunteers. In words: Concentration–QT linear random-effects model. Type of data set: in vivo, human. Conditions: plasma concentration of the analyte after midostaurin dosing, day 3. An excerpt: Baseline QTcF was included in the model as a covariate. […] This exploratory analysis was applied to both the change from the time-matched baseline and the change from time-averaged baseline.

On to `CO[C@@H]1[C@H](N(C)C(=O)c2ccccc2)C[C@H]2O[C@]1(C)n1c3ccccc3c3c4c(c5c6ccccc6n2c5c31)C(=O)N[C@H]4O` [CGP52421], for which the Tmax (commonly the time from dosing to the highest level) in data set [1] (oral, time of peak concentrations post dose, midostaurin dosing, days 1 and 3) was 3 to 4 h; in data set [1] (po, Tmax, median (range), Day 1 (single dose), midostaurin 75 mg oral), 4 h; in data set [1] (po, Tmax, median (range), Day 3 (twice daily), midostaurin 75 mg oral), 3.1 h. Moreover, the AUC(0-t) – broadly, the area under the concentration-time curve up to a stated or last time point – in data set [1] (po) stood at 3510 ng·h/mL. The Cmax (as a rule, the peak of the concentration-time curve) in data set [1] (po, Day 1 (single dose), midostaurin 75 mg oral) came out at 384 ng/mL; in data set [1] (po, Day 3 (twice daily), midostaurin 75 mg oral) it was 1250 ng/mL. Also, the “concentration at steady state relative to midostaurin and CGP62221” value in data set [2] (daily oral dosing of midostaurin, plasma) is listed as “approximately seven”. Also, the half-life entry in data set [2] (human participants) is on record as “up to 1 month”. In addition, the “treatment needed to reach the steady state” value in data set [2] (midostaurin dosing) is 21 to 28 days. The “concentration versus QTcF slope” value is recorded as 0.2 in data set [3] and “either negative or not statistically significant” in data set [3] (listed as CPG52421).
